# Measured values from patent US10857105B2, “Compounds and compositions for intracellular delivery of therapeutic agents” (ModernaTX, Inc., priority 2017, dated 2020).
# Legend:
# [1] = Particle size and polydispersity index of nanoparticle compositions (Zetasizer Nano ZS); format: physicochemical
# Outline: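 Formulations of ionizable lipid, DSPC, cholesterol and PEG-DMG (50:10:38.5:1.5 mol %) carrying Luc or hEPO mRNA with all uridines as N1-methyl pseudouridine. Dynamic light scattering in 1×PBS gave particle size and polydispersity; zeta potential read in 15 mM PBS.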
# [2] = system: luciferase (Luc) mRNA; test: Luciferase expression (whole body bioluminescence) after intravenous administration to mice; format: in vivo; settings: intravenous; for Novel lipid/MC3 expression ratio, i.v.: luciferase, 6 hr. time point, relative to MC3 formulation
# Description: In order to monitor how effectively various nanoparticle compositions deliver therapeutic and/or prophylactics to targeted cells, different nanparticle compositions including a particular therapeutic and/or prophylactic (for example, a modified or naturally occurring RNA such as an mRNA) are prepared and administered to rodent populations. Mice are intravenously, intramuscularly, intraarterially, or intratumorally administered a single dose including a nanoparticle composition with a formulation such as those provided in Example 3. In some instances, mice may be made to inhale doses. Dose sizes may range from 0.001 mg/kg to 10 mg/kg, where 10 mg/kg describes a dose including 10 mg of a therapeutic and/or, prophylactic in a nanoparticle composition for each 1 kg of body mass of the mouse. A control composition including PBS may also be employed.
# Upon administration of nanoparticle compositions to mice, dose delivery profiles, dose responses, and toxicity of particular formulations and doses thereof can be measured by enzyme-linked immunosorbent assays (ELISA), bioluminescent imaging, or other methods. For nanoparticle compositions including mRNA, time courses of protein expression can also be evaluated. Samples collected from the rodents for evaluation may include blood, sera, and tissue (for example, muscle tissue from the site of an intramuscular injection and internal tissue); sample collection may involve sacrifice of the animals.
# The efficacy of the nanoparticle compositions presented in Table 1A was evaluated with a bioluminescence study. Formulations were administered intravenously to mice (n=6) at a dosage of 0.5 mg/kg (mpk) and bioluminescence measured at 3, 6, and 24 hour time points. The standard MC3 formulation and, in some instances, a control (e.g., a PBS control) were evaluated for comparison. […] In general, flux decreased as time progressed to less than 10% of the initial flux.
# The total flux (measured by area under the curve, AUC) induced by administration of a formulation including a given lipid relative to that induced by administration of a formulation including MC3 was also measured for several lipids.
# [3] = system: modified luciferase; test: Luciferase expression in liver, lung, spleen and femur 6 hours after intravenous administration to mice; format: in vivo; settings: for Total Flux, Femur / Total Flux, Liver / Total Flux, Lung / Total Flux, Spleen: 6 hours after intravenous 0.5 mpk, mice
# Outline: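 Mice (n=3) got a single 0.5 mpk IV dose of each nanoparticle composition, with MC3 and PBS controls alongside. Organ luminescence flux was read 6 h post-dose.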
# [4] = system: IL-6, IP-10; test: Cytokine induction (IL-6, IP-10) in mice 6 hours after intravenous administration; format: in vivo; design: unit not given here; settings: intravenous 0.5 mpk
# Description: The introduction of foreign material into a mammalian body induces an innate immune response that promotes cytokine production. Such immune responses to, for example, nanoparticle compositions including therapeutic and/or prophylactics, are undesirable. The induction of certain cytokines is thus measured to evaluate the […] of nanoparticle compositions. The concentrations of various cytokines in mice upon intravenous administration of nanoparticle compositions presented in Table 1A at a dosage of 0.5 mpk was measured at 6 hours. The standard MC3 formulation and a PBS control were also tested. As is evident in Table 7, IL-6 induction was highest for compositions including Compounds 1, 3, 9, 19, and 26, while IP-10 induction was highest for compositions including Compounds 3, 4, 7, 20, and 26. IL-6 induction was lowest for compositions including Compounds 4, 11, 12, and 28. IP-10 induction was lowest for compositions including Compounds 10, 11, 12, 13, 15, 17, and 18.
# [5] = Encapsulation efficiency of RNA in nanoparticle compositions (RIBOGREEN assay); format: physicochemical
# Outline: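 Lipid nanoparticles (ionisable lipid:DSPC:cholesterol:PEG-DMG 50:10:38.5:1.5 mol %) carrying N1-methylpseudouridine luciferase or hEPO mRNA diluted to about 5 μg/mL in TE, pH 7.5, with or without 2% Triton X-100, 15 min at 37° C. RiboGreen fluorescence (ex ~480, em ~520 nm) blank-subtracted; free RNA = intact/disrupted signal.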
# [6] = system: hEPO mRNA; test: hEPO expression after intravenous administration to rats; format: in vivo, rat; settings: Table 19B; for [hEPO] Lipid/MC3: ratio to MC3
# Description: The expression of hEPO and cytokine induction in rats intravenously administered a nanoparticle composition at a dose of 2.0 mpk was measured at 6 h.
# The expression of hEPO in rats intravenously administered a nanoparticle composition at a dose of 0.2 mpk or 2.0 mpk was measured at 6 hours. Table 16 summarize the ratio of hEPO expression levels using various nanoparticle compositions as compared to the hEPO expression level using MC3 formulation and the lipid levels in the liver measured 48 hours after administration, as described above. Tables 17 and 18 summarize the lipid levels in the liver and spleen measured 48 hours after administration of Compounds 28, 33, 53, and 54. Liver and spleen levels represent the average values calculated for 3 rats in each group. As is shown in Tables 17 and 18, less than 10% of Compounds 28, 33, 53, and 54 remained in the liver after 48 hours, while greater than 60% of MC3 remained.
# Table 19A summarizes the hEPO expression, IP-10 induction, liver and spleen levels, and alanine aminotransferase (ALT) and aspartate aminotransferase (AST) measured upon intravenous administration of formulations including Compounds 48, 49, and 50 to rat at 0.2 and 2 mpk and hEPO mRNA. hEPO concentrations were measured 6 hours after administration, while cytokine induction and liver and spleen levels were measured 48 hours after administration. hEPO and IP-10 concentrations are presented in pg/ml, while liver levels are provided in ng/g. ALT and AST levels are presented in international units.
# The expression of hEPO induced by intravenous administration to rats of nanoparticle compositions at various doses was measured at 2, 4, 6, 8, 24, and 48 hour time points. FIGS. 3-6 respectively summarize the hEPO expression measured upon intravenous administration of formulations including Compounds 26, 18, 25, and MC3 to rat at various doses. The lipid levels of Compound 26 in the liver after 48 hours were about 19%.
# The expression of hEPO and lipid levels in the liver and spleen in rats intravenously administered a nanoparticle composition at a dose of 0.2 mpk was measured at various time points. Compounds 18 and 25 were selected for comparison with MC3. Lipids were formulated according to the standard MC3 formulation described above. Rats were administered intravenously a single 0.2 mpk dose and expression monitored at 0.25, 0.5, 1, 2, 4, 8, 24, and 48 hours after administration.
# [7] = Table 1A, lipid:DSPC:cholesterol:PEG-DMG 50:10:38.5:1.5 mol %
# [8] = Table 1B, formulated with hEPO mRNA
"Size [1, 7] [nm]","Size ([1]; Table 1E, compositions for subcutaneous administration) [nm]","Cytokine induction, IL-6 [4]","Cytokine induction, IP-10 [4]","Size [1, 8] [nm]","EE [5, 8] [%]","PDI [1, 7]","EE [5, 7] [%]",SMILES,"Novel lipid/MC3 expression ratio, i.v. [2]","Total Flux, Femur [3]","Total Flux, Liver [3]","Total Flux, Lung [3]","Total Flux, Spleen [3]",[hEPO] Lipid/MC3 [6],"Flux at all timepoints measured ([2]; mice, 0.5 mg/kg, 3, 6 and 24 hours)","Flux in the liver ([3]; mice (n=3), intravenous, 0.5 mpk, 6 hours)",hEPO AUC [6] [pg·h/mL]
–,–,–,–,95.5,93.9,–,–,"CCCCCCCCC(CCCCCCCC)OC(=O)CCCCCCCN(CCO)CCCCCCCCCC(=O)OCCCCCCC [Compound 189, Heptyl 10-((8-(heptadecan-9-yloxy)-8-oxooctyl)(2-hydroxyethyl)amino)decanoate]",–,–,–,–,–,3.01E+06,–,–,–
–,–,130.82,234.35,–,–,<1,85.7,"CCCCCCCCCCCCN(CCO)CCCCCCCCCCCC(=O)OC [Compound 137, Methyl 12-(dodecyl(2-hydroxyethyl)amino)dodecanoate]",–,2.02E+04,6.48E+04,1.66E+04,1.32E+05,–,significantly lower flux,lowest,–
98.8,–,6.245,209.63,–,–,–,97.37,"CCCCCCCCCOC(=O)CCCCCCCN(CCO)CCCCCCC(=O)OCC(CCCCCCCC)CCCCCCCC [Compound 143, Nonyl 8-((2-hydroxyethyl)(7-((2-octyldecyl)oxy)-7-oxoheptyl)amino)octanoate]",0.44,–,1.76E+09,3.60E+07,1.42E+08,–,–,–,–

# The remaining lines, values behind:
SMILES,"Size [1, 7] [nm]","Size ([1]; Table 1E, compositions for subcutaneous administration) [nm]","Cytokine induction, IL-6 [4]","Cytokine induction, IP-10 [4]","Size [1, 8] [nm]","EE [5, 8] [%]","PDI [1, 7]","EE [5, 7] [%]","Novel lipid/MC3 expression ratio, i.v. [2]","Total Flux, Femur [3]","Total Flux, Liver [3]","Total Flux, Lung [3]","Total Flux, Spleen [3]",[hEPO] Lipid/MC3 [6],"Flux at all timepoints measured ([2]; mice, 0.5 mg/kg, 3, 6 and 24 hours)","Flux in the liver ([3]; mice (n=3), intravenous, 0.5 mpk, 6 hours)",hEPO AUC [6] [pg·h/mL]
"CCCCCCCCCOC(=O)CCCCCCCN(CCCO)CCCCCCCC(=O)OC(CCCCCCCC)CCCCCCCC [Compound 19, Heptadecan-9-yl 8-((3-hydroxypropyl)(8-(nonyloxy)-8-oxooctyl)amino) octanoate]",101.1,80.7,285.56,1468.94,–,–,–,–,0.96,1.68E+06,6.33E+08,5.99E+06,1.77E+07,–,–,–,–
"CCCCCCCCCOC(=O)CCCCCCCN(CCO)CCCCCC(=O)OC1CCC(CCCCC)CC1 (centres unmarked) [Compound 232, Nonyl 8-((2-hydroxyethyl)(6-oxo-6-((4-pentylcyclohexyl)oxy)hexyl)amino)octanoate]",–,–,–,–,150.3,76.3,–,–,–,–,–,–,–,0.83,–,–,–
"CCCCCCCCCOC(=O)CCCCCCCN(CCCCCCCC(=O)OC(CCCCCCCC)CCCCCCCC)CCCN/C(=N/[N+](=O)[O-])NC [Compound 200, Heptadecan-9-yl (E)-8-((3-(3-methyl-2-nitroguanidino)propyl)(8-(nonyloxy)-8-oxooctyl)amino)octanoate]",76.2,–,–,–,95.3,97.3,–,97.65,–,–,–,–,–,1.72E+06,–,–,2.4e+07
"CCCCCCCCCOC(=O)CCCCCCCN(CCCCCCCC(=O)OC(CCCCCCCC)CCCCCCCC)CC(C)O (centres unmarked) [Compound 10, Heptadecan-9-yl 8-((2-hydroxypropyl)(8-(nonyloxy)-8-oxooctyl)amino) octanoate]",102.9,–,88.81,138.16,–,–,–,89.60,–,5.09E+05,3.22E+08,8.85E+05,8.17E+06,–,–,–,–
